The values below are quoted from earlier work in patent publication US20100104646A1, “NANOPARTICLE COMPOSITION FOR PREVENTION OF HAIR LOSS AND PROMOTION OF HAIR GROWTH” (priority 2006, published 2010).

The data set concerns hair loss. Conditions: clinical studies.

For `CC(C)(C)NC(=O)[C@H]1CC[C@H]2[C@@H]3CC[C@H]4NC(=O)C=C[C@]4(C)[C@H]3CC[C@]12C` [Propecia], the “participants taking the drug in whom hair loss was prevented” value was 68%. In addition, the “participants who enjoyed hair regrowth” value (participants taking the drug) is given as 66%.
